Laboratory results: ChEMBL document CHEMBL1201862, “PubChem BioAssay data set” (2004)
Values joined by “and” are separate entries in the source; they are usually repeats but may differ in a detail not shown here. Equal values may be shown once.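 Test compounds were applied to cells in 96-well plates for 48 hours at 5 doses. GI50: concentration for 50% inhibition of growth.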 Active and inactive are the calls of the source. Cut-off read from the data, not from the text of the source: active = GI50 up to about 1.1 µM and inactive = higher.

Experiments:
Test in all cases: inhibition of tumour cell growth, NCI panel, 48 h
[1] = system: SF-295
[2] = system: NCI-H226
[3] = system: CAKI-1
[4] = system: 786-0
[5] = system: UO-31
[6] = system: ACHN
[7] = system: OVCAR-3
[8] = system: COLO 205
[9] = system: RPMI-8226
[10] = system: A498
[11] = system: HOP-92
[12] = system: Hs-578T
[13] = system: SW-620
[14] = system: Malme-3M
[15] = system: SK-MEL-5
[16] = system: MDA-MB-231
[17] = system: MCF7
[18] = system: NCI-H23
[19] = system: K562
[20] = system: UACC-257
[21] = system: NCI-H460
[22] = system: MDA-N
[23] = system: SK-MEL-2
[24] = system: SF-268
[25] = system: U-251
[26] = system: SF-539
[27] = system: TK-10
[28] = system: UACC-62
[29] = system: RXF 393
[30] = system: IGROV-1
[31] = system: LOX IMVI
[32] = system: SK-MEL-28
[33] = system: EKVX
[34] = system: OVCAR-4
[35] = system: NCI-H522
[36] = system: A549
[37] = system: HT-29
[38] = system: SK-OV-3
[39] = system: SNB-75
[40] = system: HCT-15
[41] = system: OVCAR-5
[42] = system: M14
[43] = system: DU-145
[44] = system: PC-3
[45] = system: KM12
[46] = system: NCI/ADR-RES
[47] = system: HOP-62
[48] = system: HL-60
[49] = system: CCRF-CEM
[50] = system: MOLT-4
[51] = system: SN12C
[52] = system: SNB-19
[53] = system: OVCAR-8
[54] = system: MDA-MB-435
[55] = system: HCT-116
[56] = system: HCC 2998
[57] = system: T47D

CC(C)c1c(O[Si](C(C)C)(C(C)C)C(C)C)cc2c(c1O)CC[C@H]1C(C)(C)CCC[C@]21C
GI50 [1]: > 100 µM (inactive) | GI50 [2]: > 100 µM (inactive) | GI50 [3]: > 100 µM (inactive) | GI50 [4]: > 100 µM (inactive) | GI50 [5]: > 100 µM (inactive) | GI50 [6]: > 100 µM (inactive) | GI50 [7]: > 100 µM (inactive) | GI50 [8]: > 100 µM (inactive) | GI50 [9]: 45.7 µM (inactive) | GI50 [10]: > 100 µM (inactive) | GI50 [11]: > 100 µM (inactive) | GI50 [12]: > 100 µM (inactive) | GI50 [13]: > 100 µM (inactive) | GI50 [14]: > 100 µM (inactive) | GI50 [15]: > 100 µM (inactive) | GI50 [16]: > 100 µM (inactive) | GI50 [17]: > 100 µM (inactive) | GI50 [18]: 97.5 µM (inactive) | GI50 [19]: 65.6 µM (inactive) | GI50 [20]: > 100 µM (inactive) | GI50 [21]: > 100 µM (inactive) | GI50 [22]: > 100 µM (inactive) | GI50 [23]: > 100 µM (inactive) | GI50 [24]: > 100 µM (inactive) | GI50 [25]: > 100 µM (inactive) | GI50 [26]: > 100 µM (inactive) | GI50 [27]: 6.12 µM (inactive) | GI50 [28]: > 100 µM (inactive) | GI50 [29]: > 100 µM (inactive) | GI50 [30]: > 100 µM (inactive) | GI50 [31]: > 100 µM (inactive) | GI50 [32]: > 100 µM (inactive) | GI50 [33]: > 100 µM (inactive) | GI50 [34]: > 100 µM (inactive) | GI50 [35]: 47.2 µM (inactive) | GI50 [36]: > 100 µM (inactive) | GI50 [37]: > 100 µM (inactive) | GI50 [38]: > 100 µM (inactive) | GI50 [39]: 50.6 µM (inactive) | GI50 [40]: > 100 µM | GI50 [41]: > 100 µM (inactive) | GI50 [42]: > 100 µM (inactive) | GI50 [43]: > 100 µM (inactive) | GI50 [44]: > 100 µM (inactive) | GI50 [45]: > 100 µM (inactive) | GI50 [46]: > 100 µM (inactive) | GI50 [47]: > 100 µM (inactive) | GI50 [48]: 24.6 µM (inactive) | GI50 [49]: 49.5 µM (inactive) | GI50 [50]: 43.9 µM (inactive) | GI50 [51]: > 100 µM (inactive) | GI50 [52]: > 100 µM (inactive) | GI50 [53]: > 100 µM (inactive) | GI50 [54]: > 100 µM (inactive) | GI50 [55]: > 100 µM (inactive)

CC(C)(C)OC(=O)C1C(=O)NC(=O)CC1C(OCc1ccccc1)C(OCc1ccccc1)C(COCc1ccccc1)OCc1ccccc1 (stereo not given)
GI50 [1]: 50.6 µM (inactive) | GI50 [56]: > 100 µM (inactive) | GI50 [2]: > 100 µM (inactive) and 61.9 µM (inactive) | GI50 [4]: > 100 µM (inactive) | GI50 [57]: 2.14 µM (inactive) | GI50 [6]: > 75 µM (inactive) | GI50 [8]: 58.2 µM (inactive) | GI50 [10]: > 75 µM (inactive) | GI50 [13]: > 100 µM (inactive) | GI50 [18]: > 100 µM (inactive) | GI50 [19]: 65.8 µM (inactive) and 88.3 µM (inactive) | GI50 [20]: > 100 µM (inactive) and 58.7 µM (inactive) | GI50 [22]: > 100 µM (inactive) | GI50 [24]: 74 µM (inactive) and 71.4 µM (inactive) | GI50 [26]: > 100 µM (inactive) | GI50 [27]: > 100 µM (inactive) | GI50 [30]: > 100 µM (inactive) | GI50 [32]: > 100 µM (inactive) | GI50 [33]: > 100 µM (inactive) | GI50 [34]: 50.6 µM (inactive) | GI50 [37]: 16.6 µM (inactive) | GI50 [40]: > 100 µM | GI50 [41]: > 100 µM (inactive) | GI50 [42]: > 100 µM (inactive) and 71.8 µM (inactive) | GI50 [43]: > 75 µM (inactive) | GI50 [44]: > 100 µM (inactive) and 69.2 µM (inactive) | GI50 [46]: > 100 µM (inactive) and 58.6 µM (inactive) | GI50 [51]: > 100 µM (inactive) | GI50 [52]: > 100 µM (inactive) | GI50 [53]: > 100 µM (inactive) and 52.5 µM (inactive)
